Test results reported in PubChem BioAssay AID1918956 (Molecular Pharmacology Branch, DTP, NCI, 2023).

Test system: OVCAR-5 complex spheroids, viability
Assay: Anticancer human tumor OVCAR-5 cell line growth inhibition;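 also: spheroids exposed to agents for seven days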;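 as to viability, T/C: 100% = DMSO vehicle control wells viability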
Conditions: for IC50: curve of first compound; for viability, T/C: stronger effect = lower value
Method in brief: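 Complex spheroids of tumor cells with HUVEC and human MSCs, exposed to iadademstat combined with other agents. Each agent tested in half-log steps from near clinical Cmax (else 10 microM top), DMSO ≤0.25%.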

[1] = second compound 0.1 µM, first compound 0.0316 µM
[2] = second compound 0.1 µM, first compound 0.1 µM
[3] = second compound 0.1 µM, first compound 0.316 µM
[4] = second compound 0.1 µM, first compound 1 µM
[5] = second compound 0.1 µM, first compound 3.16 µM
[6] = second compound 0.1 µM, first compound 10 µM
[7] = second compound 0.316 µM, first compound 0.0316 µM
[8] = second compound 0.316 µM, first compound 0.1 µM
[9] = second compound 0.316 µM, first compound 0.316 µM
[10] = second compound 0.316 µM, first compound 1 µM
[11] = second compound 0.316 µM, first compound 3.16 µM
[12] = second compound 0.316 µM, first compound 10 µM
[13] = second compound 1 µM, first compound 0.0316 µM
[14] = second compound 1 µM, first compound 0.1 µM
[15] = second compound 1 µM, first compound 0.316 µM
[16] = second compound 1 µM, first compound 1 µM
[17] = second compound 1 µM, first compound 3.16 µM
[18] = second compound 1 µM, first compound 10 µM
[19] = second compound 3.16 µM, first compound 0.0316 µM
[20] = second compound 3.16 µM, first compound 0.1 µM
[21] = second compound 3.16 µM, first compound 0.316 µM
[22] = second compound 3.16 µM, first compound 1 µM
[23] = second compound 3.16 µM, first compound 3.16 µM
[24] = second compound 3.16 µM, first compound 10 µM
[25] = second compound 10 µM, first compound 0.0316 µM
[26] = second compound 10 µM, first compound 0.1 µM
[27] = second compound 10 µM, first compound 0.316 µM
[28] = second compound 10 µM, first compound 1 µM
[29] = second compound 10 µM, first compound 3.16 µM
[30] = second compound 10 µM, first compound 10 µM
[31] = second compound 0.1 µM, first compound 0.00316 µM
[32] = second compound 0.1 µM, first compound 0.01 µM
[33] = second compound 0.316 µM, first compound 0.00316 µM
[34] = second compound 0.316 µM, first compound 0.01 µM
[35] = second compound 1 µM, first compound 0.00316 µM
[36] = second compound 1 µM, first compound 0.01 µM
[37] = second compound 3.16 µM, first compound 0.00316 µM
[38] = second compound 3.16 µM, first compound 0.01 µM
[39] = second compound 10 µM, first compound 0.00316 µM
[40] = second compound 10 µM, first compound 0.01 µM

CC(C)c1c(-c2ccccc2)nc2c(C#N)c[nH]n2c1=O + NC1CCC(NC2CC2c2ccccc2)CC1
IC50 (second compound 0.1 µM): > 10 µM
IC50 (second compound 0.316 µM): > 10 µM
IC50 (second compound 1 µM): > 10 µM
IC50 (second compound 3.16 µM): > 10 µM
IC50 (second compound 10 µM): > 10 µM
viability, T/C [1]: 114%
viability, T/C [2]: 124%
viability, T/C [3]: 108%
viability, T/C [4]: 130%
viability, T/C [5]: 113%
viability, T/C [6]: 117%
viability, T/C [7]: 119%
viability, T/C [8]: 122%
viability, T/C [9]: 114%
viability, T/C [10]: 104%
viability, T/C [11]: 118%
viability, T/C [12]: 121%
viability, T/C [13]: 110%
viability, T/C [14]: 105%
viability, T/C [15]: 111%
viability, T/C [16]: 113%
viability, T/C [17]: 115%
viability, T/C [18]: 106%
viability, T/C [19]: 92.9%
viability, T/C [20]: 102%
viability, T/C [21]: 108%
viability, T/C [22]: 101%
viability, T/C [23]: 89.3%
viability, T/C [24]: 93.5%
viability, T/C [25]: 88.5%
viability, T/C [26]: 81.5%
viability, T/C [27]: 77.4%
viability, T/C [28]: 79.9%
viability, T/C [29]: 82.7%
viability, T/C [30]: 79.3%

CC1COCCN1c1cc(-c2ccnn2C)c2ccnc(-c3ccn[nH]3)c2n1 (stereo not given) + NC1CCC(NC2CC2c2ccccc2)CC1
IC50 (second compound 0.1 µM): 0.0618 µM
IC50 (second compound 0.316 µM): 0.0619 µM
IC50 (second compound 1 µM): 0.0814 µM
IC50 (second compound 3.16 µM): 0.0711 µM
IC50 (second compound 10 µM): 0.0477 µM
viability, T/C [31]: 111%
viability, T/C [32]: 86.9%
viability, T/C [1]: 60.4%
viability, T/C [2]: 41.7%
viability, T/C [3]: 37.2%
viability, T/C [4]: 31.6%
viability, T/C [33]: 110%
viability, T/C [34]: 87.7%
viability, T/C [7]: 61.2%
viability, T/C [8]: 41%
viability, T/C [9]: 37.4%
viability, T/C [10]: 32%
viability, T/C [35]: 104%
viability, T/C [36]: 88.8%
viability, T/C [13]: 65.2%
viability, T/C [14]: 46.2%
viability, T/C [15]: 39.4%
viability, T/C [16]: 34.7%
viability, T/C [37]: 83.8%
viability, T/C [38]: 83.4%
viability, T/C [19]: 60.1%
viability, T/C [20]: 46.8%
viability, T/C [21]: 40.7%
viability, T/C [22]: 35.8%
viability, T/C [39]: 79.1%
viability, T/C [40]: 65.9%
viability, T/C [25]: 55%
viability, T/C [26]: 41.9%
viability, T/C [27]: 37.8%
viability, T/C [28]: 33.3%

COc1ccc([C@@H](O)c2cc(-c3ncnc4cc(N5CCOCC5)ccc34)c(F)cc2Cl)nn1 + NC1CCC(NC2CC2c2ccccc2)CC1
IC50 (second compound 0.1 µM): 1.91 µM
IC50 (second compound 0.316 µM): 1.36 µM
IC50 (second compound 1 µM): 1.92 µM
IC50 (second compound 3.16 µM): 1.61 µM
IC50 (second compound 10 µM): 0.992 µM
viability, T/C [1]: 88.3%
viability, T/C [2]: 91.5%
viability, T/C [3]: 79%
viability, T/C [4]: 56%
viability, T/C [5]: 46%
viability, T/C [6]: 26.1%
viability, T/C [7]: 99.3%
viability, T/C [8]: 93.1%
viability, T/C [9]: 69.6%
viability, T/C [10]: 54.5%
viability, T/C [11]: 40%
viability, T/C [12]: 26%
viability, T/C [13]: 88.2%
viability, T/C [14]: 80.2%
viability, T/C [15]: 66.4%
viability, T/C [16]: 60.9%
viability, T/C [17]: 44.2%
viability, T/C [18]: 28%
viability, T/C [19]: 93.3%
viability, T/C [20]: 83.2%
viability, T/C [21]: 69.3%
viability, T/C [22]: 57.5%
viability, T/C [23]: 40.5%
viability, T/C [24]: 26.1%
viability, T/C [25]: 82.5%
viability, T/C [26]: 83%
viability, T/C [27]: 63%
viability, T/C [28]: 50.8%
viability, T/C [29]: 35.8%
viability, T/C [30]: 25.6%

O=C(C=Cn1cnc(-c2cc(C(F)(F)F)cc(C(F)(F)F)c2)n1)NNc1cnccn1 + NC1CCC(NC2CC2c2ccccc2)CC1
IC50 (second compound 0.1 µM): 0.235 µM
IC50 (second compound 0.316 µM): 0.215 µM
IC50 (second compound 1 µM): > 1 µM
IC50 (second compound 3.16 µM): 0.705 µM
IC50 (second compound 10 µM): 0.312 µM
viability, T/C [31]: 97.6%
viability, T/C [32]: 88.2%
viability, T/C [1]: 67.2%
viability, T/C [2]: 55%
viability, T/C [3]: 50.3%
viability, T/C [4]: 44.9%
viability, T/C [33]: 104%
viability, T/C [34]: 85.8%
viability, T/C [7]: 69.6%
viability, T/C [8]: 51%
viability, T/C [9]: 49.6%
viability, T/C [10]: 45.7%
viability, T/C [35]: 88.4%
viability, T/C [36]: 84.1%
viability, T/C [13]: 68.8%
viability, T/C [14]: 59.4%
viability, T/C [15]: 54.5%
viability, T/C [16]: 50.3%
viability, T/C [37]: 97.9%
viability, T/C [38]: 88.1%
viability, T/C [19]: 74.4%
viability, T/C [20]: 60%
viability, T/C [21]: 57.2%
viability, T/C [22]: 46.9%
viability, T/C [39]: 83.6%
viability, T/C [40]: 84.7%
viability, T/C [25]: 70.6%
viability, T/C [26]: 59.8%
viability, T/C [27]: 50%
viability, T/C [28]: 46.3%
